# Laboratory results taken from patent US20030171306A1, “Cancer treatment method” (priority 2002, published 2003).
# Where a name gives a salt, the structure may show the parent alone.
# What was measured:
# [1] = test system: CCL64 mink lung epithelial cells; assay: Protection of mink lung epithelial cells from paclitaxel, sulforhodamine B stain; type: cell-based; conditions: PDE4 inhibitor 1 μM plus forskolin 100 μM 24 h, then paclitaxel 10 nM 48 h
# Procedure: CCL64 mink lung epithelial cells (ATCC #CCL-64) were grown in DMEM supplemented with 10% FBS and 1% penicillin-streptomycin and seeded into 96-well plates. After overnight incubation at 37° C. cells were treated with 100 μM forskolin in combination with each of the PDE4 inhibitors (1 μM). After 24 hours of treatment, paclitaxel was added to wells at various concentrations up to 10 nM. Time zero control plates were harvested by staining with Sulforhodamine B (Skehan P. et. al., (1990), J. Nat'l Cancer Inst 82:1107-12.) After an additional 48 hours of incubation at 37° C., the plates were harvested and stained with sulforhodamine B. The absorbance of the samples was read at the optical density of 562 nm. The no-drug controls were set to 100% and values were normalized to time zero control. As indicated in Example 8, cells were pre-treated with forskolin plus various PDE4 inhibitors (1 μM) and then challenged with paclitaxel at various concentrations. The sulforhodamine B signal from the cells was expressed as percent of control (no-drug, vehicle only). An increase in signal, indicating protection, ranged from 85% to 130% with the cells pre-treated with forskolin plus a particular PDE4 inhibitor and followed by a paclitaxel challenge at 10 nM.
# [2] = test system: human RKO colon tumor line; assay: Tumor cell growth after chemoprotectant regimen and paclitaxel, sulforhodamine B; type: cell-based; conditions: forskolin 100 μM plus PDE4 inhibitor 1 μM, then paclitaxel 100 nM 24 h, versus DMSO
# Procedure: (§1) The human tumor cell lines HT-29 (colon: ATCC #HTB 38), RKO (colon, ATCC #HTB 130), lines A549 (lung, ATCC #CCL 185), and MDA468 (breast, ATCC #HTB 132) were obtained from the American Type Culture Collection and maintained in DMEM containing 10% FBS. Tumor cells were grown at 37° C. in a humidified atmosphere of 5% CO2. Adherent tumor cells were seeded into 96 well plates and incubated for six hours to allow for attachment. After six hours the chemoprotectants forskolin (100 μM) plus rolipram (1 μM) or forskolin (100 μM) plus ariflo (1 μM) were added. After overnight incubation, paclitaxel (100 nM) was added for 24 hours. Cells were then washed free of chemoprotectants and paclitaxel, placed in fresh media, and grown for 5 days. Growth was measured daily using sulforhodamine B (Skehan P. et. al., (1990), J. Nat'l Cancer Inst 82:1107-12). The results are depicted in FIG. 8.
# [3] = test system: human A549 lung tumor line; assay: as above; type: cell-based; conditions: for effect of chemoprotectant regimen on paclitaxel inhibition of tumor cell growth: forskolin 100 μM plus PDE4 inhibitor 1 μM, then paclitaxel 100 nM 24 h
# Procedure: as §1
# [4] = test system: human HT-29 colon tumor line; assay: as above; type: cell-based; conditions: forskolin 100 μM plus PDE4 inhibitor 1 μM, then paclitaxel 100 nM 24 h, versus DMSO
# Procedure: as §1
# [5] = test system: multiple stage neutrophil progenitors; assay: CD15 neutrophil antigen cell-based ELISA (CELISA); conditions: for CD15 signal from the cell cultures with increasing concentrations of the drug: anti-neoplastic drug on expanded CD34+ cells, 24 h
# Excerpt: Three methods, more completely described in the following examples, were utilized for a determination of cell survival and ability to produce daughter cells of primary human neutrophil progenitors: (1) a FACS assay which determined the percent of live cells by size and granularity; (2) a colony forming assay which measured the number of CFU-GM progenitors (a specific early stage neutrophil progenitor); and (3) a cell-based ELISA which measured CD15 antigen the value of which was proportional to the number of neutrophil lineage cells. This assay allows evaluation of neutrophil progenitors (cells that can divide and produce daughter neutrophil-lineage cells) at multiple stages of differentiation.
# Expanded CD34^+ stem cells were isolated as described in Example 2 and grown in complete growth media. The expanded CD34^+ cells were treated with DMSO or rolipram plus forskolin as previously described. […] After the treatment, the cells were counted, washed twice with 4 ml of HBSS supplemented with 2% FBS, and resuspended in complete growth media. The expression of CD15 antigen was used as a measure of the number of neutrophil lineage cells expanded from surviving progenitors of multiple stages of differentiation.
# The cells were plated at a set number into 96-well plates in 100 μl volume per well of complete media. […] The plates were harvested at different time points by centrifuging at 450 G for 10 minutes at room temperature (RT) and the cells were washed several twice in HBSS by centrifugation of the plates. The cells were removed by suspension twice in HBSS with 5 mM EDTA with 100 μl per well and transfer of the total 200 μl volume to capture plates (Costar DNA-bind, #2498) that had been pretreated with 1% gluteraldehyde and stored (Warren et al., 1995 Stem Cells 13:167-174).
# For CELISA, the preservative solution (PBS, 0.1% BSA, 0.1% azide) was removed from the capture plate and the wells were washed with 100 μl PBS. […] The plates were washed twice with 300 μl PBS/well and incubated with a secondary antibody (goat anti-mouse IgM-biotin, Sigma B-9265, 0.105 μg/well, 100 μl PBS with 5% goat sera) at RT for 60 min. After three to six 200 μl/well washes, strepavidin-horseradish peroxidase (Pierce 21126, 0.1 μg/well in a 1% solution of stable peroxide buffer, Pierce 34062) was added. The plates were incubated for ten minutes and washed three to six times with 200 μl/well. For the final detection step, the chemiluminescent reagent Supersignal® Ultra (Pierce 34075) prepared just prior to use by mixing equal parts of the luminol enhancer and the stable peroxide was added to the plates (100 μl per well) and gently mixed for five minutes at RT. The plates were read on a Wallace Victor II machine for one second for chemiluminescence at 425 nm.
# The data from the Wallac Victor were transferred to Excel for analysis. Averages of replicate wells from treated cells were calculated along with standard error of the mean (sem) of the counts minus the background signal from replicate wells with media only (no cells).
# [6] = test system: specific early neutrophil progenitors (CFU-GMs); assay: CFU-GM colony forming assay; type: cell-based, human; conditions: for number of CFU-GM colonies with increasing amounts of the drug: anti-neoplastic drug on expanded CD34+ cells, 24 h, colonies counted after 12 to 14 days
# Procedure: Expanded CD34^+ cells, prepared according to the procedure of Example 2, were isolated and pretreated with DMSO or rolipram plus forskolin as described in Example 2. […] The cells were then plated in a semi solid growth medium for the growth of CFU-GMs following a published method with the exception that the G-CSF (10 ng/ml) was included in place of GM-CSF and erythropoietin (Dornsife, R E et al., Antimicrob Agents Chemother, 35: 322-328, (1991); Dornsife R E; Averett D R., Antimicrob Agents Chemother, 40(2): 514-519, (1996)). The CFU-GMs were counted after 12 to 14 days. The results are depicted in FIG. 3.
# [7] = test system: expanded CD34+ stem cells; assay: Flow cytometric (FACS) evaluation of surviving and apoptotic fractions of expanded CD34+ cells; type: cell-based, human
# Procedure: A T-test analysis ([…], with application of either equal or unequal variance [difference in standard error of the mean (sem) < or >3-fold, respectively) was performed to compare between treatment groups to determine if statistically significant differences existed (MS Excel, SAS JMP).
# normal progenitor cells = assay: Cell based assays utilized herein, PDE4 inhibitor used alone; conditions: without forskolin
smiles,measurement,setting,value
"COc1ccc([C@]2(C#N)CC[C@@H](C(=O)O)CC2)cc1OC1CCCC1 [Ariflo, cis-4-cyano-4-[3-(cyclopentyloxy)-4-methoxyphenyl]cyclohexane-1-carboxylic acid]",Sulforhodamine B signal (survival) as percent of no-drug control,[1],110%
same,effect of chemoprotectant regimen on paclitaxel inhibition of tumor cell growth,[2],did not effect the inhibition of tumor cell growth
same,effect of chemoprotectant regimen on paclitaxel inhibition of tumor cell growth,[3],no additional protection
same,effect of chemoprotectant regimen on paclitaxel inhibition of tumor cell growth,[4],did not effect the inhibition of tumor cell growth
"CN(Cc1cnc2nc(N)nc(N)c2n1)c1ccc(C(=O)N[C@@H](CCC(=O)O)C(=O)O)cc1 [methotrexate, N-[4[[(2,4-diamino-6-pteridinyl)methyl]methylamino]benzoyl]-L-glutamic acid]",CD15 signal from the cell cultures with increasing concentrations of the drug,[5],decreased
"CCCCn1c(=O)c2c(ncn2CC(C)=O)n(CCCC)c1=O [Denbufylline, 7-acetonyl,1,3dibutylxanthine]",Sulforhodamine B signal (survival) as percent of no-drug control,[1],95%
COC(=O)c1cccc(-n2c(=O)n(Cc3ccccc3)c(=O)c3cccnc32)c1 [CP-77059],Sulforhodamine B signal (survival) as percent of no-drug control,[1],85%
"CC[C@]1(O)C[C@@H]2CN(CCc3c([nH]c4ccccc34)[C@@](C(=O)OC)(c3cc4c(cc3OC)N(C)[C@H]3[C@@](O)(C(=O)OC)[C@H](OC(C)=O)[C@]5(CC)C=CCN6CC[C@]43[C@@H]65)C2)C1 [Vinblastine, vincaleukoblastine sulfate]",CD15 signal from the cell cultures with increasing concentrations of the drug,[5],decreased
"CC[C@@]1(O)C(=O)OCc2c1cc1n(c2=O)Cc2cc3c(CN(C)C)c(O)ccc3nc2-1 [topotecan, (S)-10-[(dimethylamino)methyl]-4-ethyl-4,9-dihydroxy-1H-pyrano[3′,4′,6,7]indolizino[1,2-b]quinoline-3,14(4H,12H)-dione monohydrochloride]",CD15 signal from the cell cultures with increasing concentrations of the drug,[5],decreased
"COc1cc([C@@H]2c3cc4c(cc3[C@@H](O[C@@H]3O[C@@H]5CO[C@@H](C)O[C@H]5[C@H](O)[C@H]3O)[C@H]3COC(=O)[C@H]23)OCO4)cc(OC)c1O [Etoposide, 4′-demethyl-epipodophyllotoxin 9[4,6-0-(R)-ethylidene-β-D-glucopyranoside]]",number of CFU-GM colonies with increasing amounts of the drug,[6],decreased in a dose dependent manner
same,CD15 signal from the cell cultures with increasing concentrations of the drug,[5],decreased
"O=c1[nH]cc(F)c(=O)[nH]1 [5-fluorouracil, 5-fluoro-2,4-(1-H,3H) pyrimidinedione]",number of CFU-GM colonies with increasing amounts of the drug,[6],decreased in a dose dependent manner
same,CD15 signal from the cell cultures with increasing concentrations of the drug,[5],decreased
"COc1ccc(C(=O)Nc2c(Cl)cncc2Cl)cc1OC1CCCC1 [Piclamilast, N-(3,5-dichloropyrid-4-yl)-3-cyclopentyloxy-4-methoxybenzamide]",Sulforhodamine B signal (survival) as percent of no-drug control,[1],130%
COc1ccc(C2CNC(=O)C2)cc1OC1CCCC1 (stereo not shown) [Rolipram],Sulforhodamine B signal (survival) as percent of no-drug control,[1],110%
same,survival of CFU-GM progenitors,"[6]; rolipram plus forskolin prior to 5-fluorouracil, etoposide or paclitaxel, versus DMSO",increased the survival of CFU-GM progenitors
same,effect of chemoprotectant regimen on paclitaxel inhibition of tumor cell growth,[2],did not effect the inhibition of tumor cell growth
same,effect of chemoprotectant regimen on paclitaxel inhibition of tumor cell growth,[3],no additional protection
same,effect of chemoprotectant regimen on paclitaxel inhibition of tumor cell growth,[4],did not effect the inhibition of tumor cell growth
same,apoptotic fraction in paclitaxel treated cells compared with DMSO pretreatment,[7]; pretreatment with rolipram plus forskolin,significantly reduced the apoptotic fraction
same,surviving cell fraction,"[7]; rolipram 1 μM plus forskolin 100 μM 24 h, then paclitaxel 30 nM 24 h",86%
same,surviving cell fraction,"[7]; rolipram 1 μM plus forskolin 100 μM 24 h, then paclitaxel 100 nM 24 h",81%
same,surviving cell fraction,"[7]; rolipram 1 μM plus forskolin 100 μM 24 h, then paclitaxel 300 nM 24 h",63%
same,surviving cell fraction,"[7]; rolipram 1 μM plus forskolin 100 μM 24 h, then paclitaxel 600 nM 24 h",59%
same,protective effect,normal progenitor cells,little protective effect
same,effect of pretreatment on toxicity towards neutrophil progenitors compared to DMSO,"[5]; rolipram plus forskolin, then carboplatin",no significant difference
same,effect of pretreatment on toxicity towards neutrophil progenitors compared to DMSO,"[5]; rolipram plus forskolin, then cisplatin",significantly increase the toxicity
same,effect of pretreatment on toxicity towards neutrophil progenitors compared to DMSO,"[5]; rolipram plus forskolin, then doxorubicin",significantly increase the toxicity
same,CD15 signal after pretreatment versus DMSO,"[5]; rolipram plus forskolin, then paclitaxel, 5-FU, etoposide, vinblastine, vinorelbine, methotrexate or topotecan, 99% confidence",increased the CD15 signal antigen to a statistically significant level
"CC(=O)O[C@H]1C(=O)[C@@]2(C)[C@H]([C@H](OC(=O)c3ccccc3)[C@]3(O)C[C@H](OC(=O)[C@H](O)[C@@H](NC(=O)c4ccccc4)c4ccccc4)C(C)=C1C3(C)C)[C@]1(OC(C)=O)CO[C@@H]1C[C@@H]2O [Paclitaxel, 5β,20-epoxy-1,2α,4,7β,10β,13α-hexa-hydroxytax-11-en-9-one 4,10-diacetate 2-benzoate 13-ester with (2R,3S)-N-benzoyl-3-phenylisoserine]",number of CFU-GM colonies with increasing amounts of the drug,[6],did not exhibit a good dose response
same,inhibition of tumor cell growth,[3]; paclitaxel 100 nM 24 h,not completely inhibited
same,surviving cell fraction,"[7]; DMSO pretreatment only 24 h, then paclitaxel 30 nM 24 h",45%
same,surviving cell fraction,"[7]; DMSO pretreatment only 24 h, then paclitaxel 100 nM 24 h",27%
same,surviving cell fraction,"[7]; DMSO pretreatment only 24 h, then paclitaxel 300 nM 24 h",23%
same,surviving cell fraction,"[7]; DMSO pretreatment only 24 h, then paclitaxel 600 nM 24 h",18%
same,CD15 signal from the cell cultures with increasing concentrations of the drug,[5],decreased
COC(=O)N1C[C@@H](c2ccc(OC)c(OC3CCCC3)c2)[C@](C)(C(C)=O)C1 [GI193600X],Sulforhodamine B signal (survival) as percent of no-drug control,[1],120%
"CCC1=C[C@@H]2CN(C1)Cc1c([nH]c3ccccc13)[C@@](C(=O)OC)(c1cc3c(cc1OC)N(C)[C@H]1[C@@](O)(C(=O)OC)[C@H](OC(C)=O)[C@]4(CC)C=CCN5CC[C@]31[C@@H]54)C2 (relative stereo) [Vinorelbine, 3′,4′-didehydro-4′-deoxy-C′-norvincaleukoblastine [R-(R*,R*)-2,3-dihydroxybutanedioate (1:2)(salt)]]",CD15 signal from the cell cultures with increasing concentrations of the drug,[5],decreased
CCn1c(=O)c2ccccc2n(-c2cccc([N+](=O)[O-])c2)c1=O [Nitraquazone],Sulforhodamine B signal (survival) as percent of no-drug control,[1],115%
O=c1c2cccnc2n(-c2cccc([N+](=O)[O-])c2)c(=O)n1Cc1ccncc1 [RS-25344],Sulforhodamine B signal (survival) as percent of no-drug control,[1],105%
